Laboratory results: patent publication US20260258064A1 (SIRONAX LTD., priority 2023, published 2026)

What follows are molecules tested against T1, SARM1 (50-724) (Homo sapiens, UniProt Q6SZW1) (assay: SARM1 (50-724) enzymatic assay (LC-MS/MS)). Conditions: Purified SARM1 (50-724) 2 nM, NMN as activator, NAD+ as substrate, 1 h at room temperature, read-out: IC50 (SARM1 inhibitory activity).
T1 construct: Purified SARM1 (50-724) with a final concentration of 2 nM was pre-incubated with a test compound
T1 sequence (Q6SZW1 50-724): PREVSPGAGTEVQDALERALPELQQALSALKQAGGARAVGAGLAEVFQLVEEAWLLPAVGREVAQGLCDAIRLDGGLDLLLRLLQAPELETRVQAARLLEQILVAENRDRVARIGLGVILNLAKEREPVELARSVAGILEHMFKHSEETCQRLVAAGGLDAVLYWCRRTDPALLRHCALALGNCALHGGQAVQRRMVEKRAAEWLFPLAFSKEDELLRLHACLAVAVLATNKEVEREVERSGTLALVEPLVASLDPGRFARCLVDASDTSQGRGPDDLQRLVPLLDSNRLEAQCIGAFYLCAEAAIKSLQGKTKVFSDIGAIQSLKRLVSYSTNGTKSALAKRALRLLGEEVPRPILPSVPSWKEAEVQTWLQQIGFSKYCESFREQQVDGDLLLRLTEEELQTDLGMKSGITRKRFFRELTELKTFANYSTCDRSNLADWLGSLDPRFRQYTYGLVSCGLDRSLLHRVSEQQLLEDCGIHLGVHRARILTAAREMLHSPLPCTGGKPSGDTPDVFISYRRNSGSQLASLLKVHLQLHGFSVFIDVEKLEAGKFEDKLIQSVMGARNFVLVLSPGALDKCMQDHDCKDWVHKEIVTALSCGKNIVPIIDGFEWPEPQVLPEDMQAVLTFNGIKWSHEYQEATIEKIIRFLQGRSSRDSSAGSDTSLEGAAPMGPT
Type: biochemical
How it was run: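 Human SARM1 (50-724), 2 nM, pre-incubated 15 min at room temperature with compound in Dulbecco's PBS. Reaction started with 200 µM NMN (activator) plus […] NAD^+ substrate, run 1 h at room temperature, quenched with 70% acetonitrile. Turnover quantified by LC-MS/MS; IC50 reported.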

Row | SMILES | IC50 [nM]
1 | CS(=O)(=O)Cc1nnc(-c2nc3cc(C(F)(F)F)cc(F)c3[nH]2)n1-c1cccc(Cl)c1Cl [Compound 185, 2-(4-(2,3-dichlorophenyl)-5-((methylsulfonyl)methyl)-4H-1,2,4-triazol-3-yl)-4-fluoro-6-(trifluoromethyl)-1H-benzo[d]imidazole] | ≤ 100
2 | O=C1CN(c2nc3cc(C(F)(F)F)ccc3[nH]2)C(c2ccccc2)CN1 (stereo not shown) [Compound 368, 5-phenyl-4-(5-(trifluoromethyl)-1H-benzo[d]imidazol-2-yl)piperazin-2-one] | > 1000
3 | FC(F)(F)c1ccc2[nH]c(N3CCSCC3c3ccccc3)nc2c1 (stereo not shown) [Compound 319, 3-phenyl-4-(5-(trifluoromethyl)-1H-benzo[d]imidazol-2-yl)thiomorpholine] | > 1000
4 | C[S+]([O-])c1c(Br)ccc2[nH]c(-c3nncn3-c3cccc(Cl)c3Cl)nc12 (stereo not shown) [Example 94, 5-bromo-2-(4-(2,3-dichlorophenyl)-4H-1,2,4-triazol-3-yl)-4-(methylsulfinyl)-1H-benzo[d]imidazole] | 500 to 1000
5 | O=c1ccc(-c2cccc(Cl)c2Cl)c(-c2nc3cc(C(F)(F)F)ccc3[nH]2)[nH]1 [Example 37] | > 1000
6 | Cc1ccc2[nH]c(C3=C(C4CCCC4)COC3=O)nc2c1 [Compound 9, 4-Cyclopentyl-3-(5-methyl-1H-benzo[d]imidazol-2-yl)furan-2(5H)-one] | > 1000
7 | CS(=O)(=O)Cc1nnc(-c2nc3cc(C(F)(F)F)cc(F)c3[nH]2)n1-c1cccc(Cl)c1Cl (single isomer, unassigned) [Compound 186] | 100 to 500
8 | OC1CC(OCc2nnc(-c3nc4cc(C(F)(F)F)ccc4[nH]3)n2-c2cccc(Cl)c2Cl)C1 (stereo not shown) [Example 127] | ≤ 100
9 | CCc1nnc(-c2nc3cc(C(F)(F)F)ccc3[nH]2)n1-c1cccc(Cl)c1Cl [Compound 145, 2-(4-(2,3-dichlorophenyl)-5-ethyl-4H-1,2,4-triazol-3-yl)-5-(trifluoromethyl)-1H-benzo[d]imidazole] | ≤ 100
10 | CC(C)(C)Oc1cnccc1-n1cnnc1-c1nc2cc(C(F)(F)F)ccc2[nH]1 [Compound 219, 2-(4-(3-(tert-butoxy)pyridin-4-yl)-4H-1,2,4-triazol-3-yl)-5-(trifluoromethyl)-1H-benzo[d]imidazole] | 100 to 500
11 | FC(F)(F)c1ccncc1-n1cnnc1-c1nc2cc(N3C4COCC3C4)ccc2[nH]1 [Compound 342, 6-[2-[4-[4-(trifluoromethyl)-3-pyridyl]-1,2,4-triazol-3-yl]-1H-benzimidazol-5-yl]-3-oxa-6-azabicyclo[3.1.1]heptane] | 500 to 1000
12 | C[S+]([O-])c1ccc2[nH]c(-c3nncn3-c3cccc(Cl)c3Cl)nc2c1 (stereo not shown) [Compound 153, 2-(4-(2,3-dichlorophenyl)-4H-1,2,4-triazol-3-yl)-5-(methylsulfinyl)-1H-benzo[d]imidazole] | 100 to 500
13 | FC(F)(F)c1ccc2[nH]c(C3CSCC3c3ccccc3Cl)nc2c1 (stereo not shown) [Compound 340, 2-(4-(2-chlorophenyl)tetrahydrothiophen-3-yl)-5-(trifluoromethyl)-1H-benzo[d]imidazole] | 100 to 500
14 | Cc1ccc2[nH]c(-c3cnccc3-c3cccc(Cl)c3Cl)nc2c1 [Example 23] | ≤ 100
15 | FC(F)(F)c1ccc2[nH]c(-c3nnc(Cl)cc3-c3ccccc3Cl)nc2c1 [Compound 407, 2-(6-chloro-4-(2-chlorophenyl)pyridazin-3-yl)-5-(trifluoromethyl)-1H-benzo[d]imidazole] | ≤ 100

Results, then the molecule that gave them:

Row | IC50 [nM] | SMILES
16 | ≤ 100 | CC1CCN(c2cc(F)c3[nH]c(-c4nncn4-c4cnccc4C(F)(F)F)nc3c2)C1 (stereo not shown) [Compound 436, 4-fluoro-6-(3-methylpyrrolidin-1-yl)-2-(4-(4-(trifluoromethyl)pyridin-3-yl)-4H-1,2,4-triazol-3-yl)-1H-benzo[d]imidazole]
17 | ≤ 100 | CCc1ccncc1-n1cnnc1-c1nc2cc(C(F)(F)F)ccc2[nH]1 [Compound 231, 2-(4-(4-ethylpyridin-3-yl)-4H-1,2,4-triazol-3-yl)-5-(trifluoromethyl)-1H-benzo[d]imidazole]
18 | ≤ 100 | Fc1cc(C(F)(F)F)cc2nc(-c3nncn3-c3cc(Cl)ncc3OC(F)(F)F)[nH]c12 [Compound 218, 2-(4-(2-chloro-5-(trifluoromethoxy)pyridin-4-yl)-4H-1,2,4-triazol-3-yl)-7-fluoro-5-(trifluoromethyl)-1H-benzo[d]imidazole]
19 | 100 to 500 | N#Cc1c(Cl)ccc2[nH]c(-c3nncn3-c3cccc(Cl)c3Cl)nc12 [Example 50, 5-chloro-2-(4-(2,3-dichlorophenyl)-4H-1,2,4-triazol-3-yl)-1H-benzo[d]imidazole-4-carbonitrile]
20 | 100 to 500 | N#CC1(c2cccc3[nH]c(-c4nncn4-c4cnccc4C(F)(F)F)nc23)CC1 [Compound 442, 1-(2-(4-(4-(trifluoromethyl)pyridin-3-yl)-4H-1,2,4-triazol-3-yl)-1H-benzo[d]imidazol-4-yl)cyclopropane-1-carbonitrile]
21 | ≤ 100 | Fc1cc(C2CC23CCOC3)cc2nc(-c3nncn3-c3cnccc3C(F)(F)F)[nH]c12 (stereo not shown) [Compound 414, 7-fluoro-5-(5-oxaspiro[2.4]heptan-2-yl)-2-[4-[4-(trifluoromethyl)-3-pyridyl]-1,2,4-triazol-3-yl]-1H-benzimidazole]
22 | ≤ 100 | Fc1cc(C23COCC2C3)cc2nc(-c3nncn3-c3cnccc3C(F)(F)F)[nH]c12 (stereo not shown) [Compound 374]
23 | > 1000 | CS(=O)(=O)c1cccc(-n2cnnc2-c2nc3cc(C(F)(F)F)ccc3[nH]2)c1 [Example 52]
24 | ≤ 100 | FC(F)(F)c1ccc2[nH]c(-c3nncn3-c3c(Cl)cccc3Cl)nc2c1 [Compound 149, 2-(4-(2,6-dichlorophenyl)-4H-1,2,4-triazol-3-yl)-5-(trifluoromethyl)-1H-benzo[d]imidazole]
25 | ≤ 100 | CS(=O)(=O)Cc1nnc(-c2nc3cc(C4CC4)cc(F)c3[nH]2)n1-c1cnccc1C(F)(F)F [Compound 283, 5-cyclopropyl-7-fluoro-2-(5-((methylsulfonyl)methyl)-4-(4-(trifluoromethyl)pyridin-3-yl)-4H-1,2,4-triazol-3-yl)-1H-benzo[d]imidazole]
26 | ≤ 100 | FC(F)(F)Oc1ccc2[nH]c(-c3nncn3-c3cccc(Cl)c3Cl)nc2c1 [Example 132, 2-(4-(2,3-dichlorophenyl)-4H-1,2,4-triazol-3-yl)-5-(trifluoromethoxy)-1H-benzo[d]imidazole]
27 | ≤ 100 | C=C(CF)c1cc(F)c2[nH]c(-c3nncn3-c3cnccc3C(F)(F)F)nc2c1 [Compound 286, 7-fluoro-5-(3-fluoroprop-1-en-2-yl)-2-(4-(4-(trifluoromethyl)pyridin-3-yl)-4H-1,2,4-triazol-3-yl)-1H-benzo[d]imidazole]
28 | ≤ 100 | CN(CCCO)c1cc(F)c2[nH]c(-c3nncn3-c3cnccc3C(F)(F)F)nc2c1 [Compound 451, 3-((4-fluoro-2-(4-(4-(trifluoromethyl)pyridin-3-yl)-4H-1,2,4-triazol-3-yl)-1H-benzo[d]imidazol-6-yl)(methyl)amino)propan-1-ol]
29 | ≤ 100 | Fc1cc(C(F)(F)F)cc2nc(-c3nncn3-c3cc(C(F)F)ccc3Cl)[nH]c12 [Compound 200, 2-(4-(2-chloro-5-(difluoromethyl)phenyl)-4H-1,2,4-triazol-3-yl)-7-fluoro-5-(trifluoromethyl)-1H-benzo[d]imidazole]
30 | ≤ 100 | Fc1cccc(-n2cnnc2-c2nc3cc(C(F)(F)F)ccc3[nH]2)c1F [Example 84, 2-(4-(2,3-difluorophenyl)-4H-1,2,4-triazol-3-yl)-5-(trifluoromethyl)-1H-benzo[d]imidazole]
31 | ≤ 100 | Fc1cc2[nH]c(-c3nncn3-c3cnccc3C(F)(F)F)nc2c(F)c1C1CC1 [Compound 332, 5-cyclopropyl-4,6-difluoro-2-(4-(4-(trifluoromethyl)pyridin-3-yl)-4H-1,2,4-triazol-3-yl)-1H-benzo[d]imidazole]
32 | ≤ 100 | CS(=O)(=O)CCc1cc(-n2cnnc2-c2nc3cc(C(F)(F)F)ccc3[nH]2)c(OC(F)(F)F)cn1 [Compound 254, 2-(4-(2-(2-(methylsulfonyl)ethyl)-5-(trifluoromethoxy)pyridin-4-yl)-4H-1,2,4-triazol-3-yl)-5-(trifluoromethyl)-1H-benzo[d]imidazole]
33 | 100 to 500 | Fc1cccc(-n2c(Cn3cccn3)nnc2-c2nc3cc(C(F)(F)F)ccc3[nH]2)c1Cl [Compound 381, 2-(5-((1H-pyrazol-1-yl)methyl)-4-(2-chloro-3-fluorophenyl)-4H-1,2,4-triazol-3-yl)-5-(trifluoromethyl)-1H-benzo[d]imidazole]
34 | ≤ 100 | Fc1cc(C2CC2(F)F)cc2nc(-c3nncn3-c3cnccc3C(F)(F)F)[nH]c12 (stereo not shown) [Compound 298, 5-(2,2-difluorocyclopropyl)-7-fluoro-2-(4-(4-(trifluoromethyl)pyridin-3-yl)-4H-1,2,4-triazol-3-yl)-1H-benzo[d]imidazole]
